Results: ChEMBL document CHEMBL3397003, “Synthesis of dansyl-labeled probe of thiophene analogue of annonaceous acetogenins for visualization of cell distribution and growth inhibitory activity toward human cancer cell lines” (2015)
One block for each compound: values may come before it.

How the values were obtained:
Type in all cases: functional
[1] = Growth inhibition of human SF295 cells after 48 hrs by sulforhodamine B colorimetric assay; settings: SF-295, 48 h
SK-OV-3 = test: Growth inhibition of human SKOV3 cells after 48 hrs by sulforhodamine B colorimetric assay; settings: SK-OV-3, 48 h, read-out: pGI50 (converted)
[2] = Growth inhibition of human DMS273 cells after 48 hrs by sulforhodamine B colorimetric assay; settings: DMS-273, 48 h
NCI-H23 = test: Growth inhibition of human NCI-H23 cells after 48 hrs by sulforhodamine B colorimetric assay; settings: NCI-H23, 48 h
[3] = Growth inhibition of human RXF631L cells after 48 hrs by sulforhodamine B colorimetric assay; settings: RXF 631, 48 h, read-out: pGI50 (converted)
[4] = Growth inhibition of human SNB78 cells after 48 hrs by sulforhodamine B colorimetric assay; settings: SNB-78, 48 h, read-out: pGI50 (converted)
U-251 = test: Growth inhibition of human U251 cells after 48 hrs by sulforhodamine B colorimetric assay; settings: U-251, 48 h, read-out: pGI50 (converted)
A549 = test: Growth inhibition of human A549 cells after 48 hrs by sulforhodamine B colorimetric assay; settings: A549, 48 h, read-out: pGI50 (converted)
[5] = Growth inhibition of human HBC4 cells after 48 hrs by sulforhodamine B colorimetric assay; settings: HBC4, 48 h, read-out: pGI50 (converted)
MCF7 = test: Growth inhibition of human MCF7 cells after 48 hrs by sulforhodamine B colorimetric assay; settings: MCF7, 48 h
SF-268 = test: Growth inhibition of human SF268 cells after 48 hrs by sulforhodamine B colorimetric assay; settings: SF-268, 48 h, read-out: pGI50 (converted)
NCI-H522 = test: Growth inhibition of human NCI-H522 cells after 48 hrs by sulforhodamine B colorimetric assay; settings: NCI-H522, 48 h
[6] = Growth inhibition of human SF539 cells after 48 hrs by sulforhodamine B colorimetric assay; settings: SF-539, 48 h, read-out: pGI50 (converted)
[7] = Growth inhibition of human MKN45 cells after 48 hrs by sulforhodamine B colorimetric assay; settings: MKN-45, 48 h, read-out: pGI50 (converted)
[8] = Growth inhibition of human MKN74 cells after 48 hrs by sulforhodamine B colorimetric assay; settings: MKN-74, 48 h
[9] = Growth inhibition of human HCT116 cells after 48 hrs by sulforhodamine B colorimetric assay; settings: HCT-116, 48 h
[10] = Growth inhibition of human MKN28 cells after 48 hrs by sulforhodamine B colorimetric assay; settings: MKN-28, 48 h
[11] = Growth inhibition of human MKN7 cells after 48 hrs by sulforhodamine B colorimetric assay; settings: MKN-7, 48 h
[12] = Growth inhibition of human OVCAR5 cells after 48 hrs by sulforhodamine B colorimetric assay; settings: OVCAR-5, 48 h, read-out: pGI50 (converted)
[13] = Growth inhibition of human OVCAR3 cells after 48 hrs by sulforhodamine B colorimetric assay; settings: OVCAR-3, 48 h, read-out: pGI50 (converted)
[14] = Growth inhibition of human HCC2998 cells after 48 hrs by sulforhodamine B colorimetric assay; settings: HCC 2998, 48 h, read-out: pGI50 (converted)
DU-145 = test: Growth inhibition of human DU145 cells after 48 hrs by sulforhodamine B colorimetric assay; settings: DU-145, 48 h, read-out: pGI50 (converted)
[15] = Growth inhibition of human HCT15 cells after 48 hrs by sulforhodamine B colorimetric assay; settings: HCT-15, 48 h, read-out: pGI50 (converted)
ACHN = test: Growth inhibition of human ACHN cells after 48 hrs by sulforhodamine B colorimetric assay; settings: read-out: pGI50 (converted)
[16] = Growth inhibition of human HBC5 cells after 48 hrs by sulforhodamine B colorimetric assay; settings: HBC5, 48 h
NCI-H460 = test: Growth inhibition of human NCI-H460 cells after 48 hrs by sulforhodamine B colorimetric assay; settings: NCI-H460, 48 h, read-out: pGI50 (converted)
KM12 = test: Growth inhibition of human KM12 cells after 48 hrs by sulforhodamine B colorimetric assay; settings: KM12, 48 h, read-out: pGI50 (converted)
NCI-H226 = test: Growth inhibition of human NCI-H226 cells after 48 hrs by sulforhodamine B colorimetric assay; settings: NCI-H226, 48 h, read-out: pGI50 (converted)
[17] = Growth inhibition of human OVCAR4 cells after 48 hrs by sulforhodamine B colorimetric assay; settings: OVCAR-4, 48 h, read-out: pGI50 (converted)
St-4 = test: Growth inhibition of human St-4 cells after 48 hrs by sulforhodamine B colorimetric assay; settings: St-4, 48 h, read-out: pGI50 (converted)
[18] = Growth inhibition of human LOXIMVI cells after 48 hrs by sulforhodamine B colorimetric assay; settings: LOX IMVI
[19] = Growth inhibition of human OVCAR8 cells after 48 hrs by sulforhodamine B colorimetric assay; settings: OVCAR-8, 48 h, read-out: pGI50 (converted)
[20] = Growth inhibition of human MKN1 cells after 48 hrs by sulforhodamine B colorimetric assay; settings: MKN-1, 48 h, read-out: pGI50 (converted)
SNB-75 = test: Growth inhibition of human SNB75 cells after 48 hrs by sulforhodamine B colorimetric assay; settings: SNB-75, 48 h, read-out: pGI50 (converted)
HT-29 = test: Growth inhibition of human HT-29 cells after 48 hrs by sulforhodamine B colorimetric assay; settings: HT-29, 48 h, read-out: pGI50 (converted)
[21] = Growth inhibition of human DMS114 cells after 48 hrs by sulforhodamine B colorimetric assay; settings: DMS-114, 48 h
MDA-MB-231 = test: Growth inhibition of human MDA-MB-231 cells after 48 hrs by sulforhodamine B colorimetric assay; settings: MDA-MB-231, 48 h, read-out: pGI50 (converted)
[22] = Growth inhibition of human BSY1 cells after 48 hrs by sulforhodamine B colorimetric assay; settings: BSY-1, 48 h
[23] = Growth inhibition of human PC3 cells after 48 hrs by sulforhodamine B colorimetric assay; settings: PC-3, 48 h, read-out: pGI50 (converted)

GI50 (SK-OV-3): > 100 µM
GI50 (NCI-H23): 0.2 µM
GI50 (U-251): > 100 µM
GI50 (A549): > 100 µM
GI50 (MCF7): 2 µM
GI50 (NCI-H522): 1 µM
Compound: CCCCCCCCCCCC[C@@H](O)[C@H]1CC[C@H]([C@H](O)CCCCCCCCCCNC(=O)c2ccsc2)O1
GI50 [1]: 1 µM
GI50 [2]: 2 µM
GI50 [3]: > 100 µM
GI50 [4]: > 100 µM
GI50 [5]: > 100 µM
GI50 (SF-268): > 100 µM
GI50 [6]: > 100 µM

GI50 (SK-OV-3): > 100 µM
GI50 (NCI-H23): 36.3 µM
GI50 (U-251): > 100 µM
GI50 (A549): > 100 µM
GI50 (DU-145): > 100 µM
GI50 (ACHN): > 100 µM
GI50 (NCI-H460): > 100 µM
GI50 (NCI-H226): > 100 µM
GI50 (MCF7): 2.88 µM
GI50 (NCI-H522): 25.7 µM
GI50 (HT-29): > 100 µM
GI50 (MDA-MB-231): > 100 µM
Compound: CN(C)c1cccc2c(S(=O)(=O)NCCCCCCCCC[C@@H](O)[C@H]3CC[C@H]([C@H](O)CCCCCCCCCCNC(=O)c4ccsc4)O3)cccc12
GI50 [7]: > 100 µM
GI50 [1]: 12.9 µM
GI50 [2]: > 100 µM
GI50 [8]: 33.1 µM
GI50 [3]: > 100 µM
GI50 [9]: 0.302 µM
GI50 [10]: 0.0363 µM
GI50 [11]: 0.0363 µM
GI50 [4]: > 100 µM
GI50 [12]: > 100 µM
GI50 [13]: > 100 µM
GI50 [14]: > 100 µM
GI50 [5]: > 100 µM
GI50 [15]: > 100 µM
GI50 [16]: 0.363 µM
GI50 (KM12): > 100 µM
GI50 [17]: > 100 µM
GI50 (St-4): > 100 µM
GI50 [18]: 0.676 µM
GI50 (SF-268): > 100 µM
GI50 [19]: > 100 µM
GI50 [20]: > 100 µM
GI50 (SNB-75): > 100 µM
GI50 [21]: 0.0302 µM
GI50 [6]: > 100 µM
GI50 [22]: 1.2 µM
GI50 [23]: > 100 µM
